From paper PMC3902031 (Bioorganic & medicinal chemistry, 2013)
Several values for one entry are separate records, joined by “and”; a condition that tells them apart may be missing. Identical values can stand only once. Like-named read-outs stand apart in the source and are kept apart here.

Key:
T. cruzi amastigotes [1] = assay: T. cruzi amastigote assays; type: cell-based, Trypanosoma cruzi
T. cruzi amastigotes [2] = conditions: cited from earlier work
[3] = target: T1, TcFPPS (T. cruzi farnesyl pyrophosphate synthase) (Trypanosoma cruzi, UniProt Q8WS26); conditions: cited from earlier work
T1 sequence (Q8WS26 1-425): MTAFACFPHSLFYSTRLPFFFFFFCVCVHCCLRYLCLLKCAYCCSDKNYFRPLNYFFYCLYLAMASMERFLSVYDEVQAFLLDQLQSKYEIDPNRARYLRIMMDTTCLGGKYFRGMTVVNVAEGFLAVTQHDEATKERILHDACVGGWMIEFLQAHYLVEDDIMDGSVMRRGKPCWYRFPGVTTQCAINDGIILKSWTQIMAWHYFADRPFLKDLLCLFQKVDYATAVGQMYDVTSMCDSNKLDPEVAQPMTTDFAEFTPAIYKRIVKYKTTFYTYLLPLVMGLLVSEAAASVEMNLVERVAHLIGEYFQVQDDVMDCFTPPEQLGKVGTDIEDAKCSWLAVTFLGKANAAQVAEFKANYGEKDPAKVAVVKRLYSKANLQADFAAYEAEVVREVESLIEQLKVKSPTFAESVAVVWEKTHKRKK

T. gondii tachyzoites [4] = conditions: positive control; cited from earlier work
T. gondii tachyzoites [5] = assay: T. gondii tachyzoites assays; type: cell-based, Toxoplasma gondii
[6] = target: T1, TcFPPS (T. cruzi farnesyl pyrophosphate synthase); assay: TcFPPS enzymatic activity inhibition; type: biochemical

## O=C(Cn1ccnc1[N+](=O)[O-])NCc1ccccc1 [Benznidazole, reference compound]
T. cruzi amastigotes [1]
  ED50 T. cruzi amastigotes: 1.44 ± 0.97 µM
T. cruzi amastigotes [2]
  ED50 intracellular T. cruzi proliferation: 2.77 µM

## CCCCCCCCC(F)(P(=O)(O)O)P(=O)(O)O [Compound 10]
[3]
  activity against TcFPPS: devoid
T. cruzi amastigotes [2]
  cellular activity against T. cruzi: devoid of cellular activity

## O=P(O)(O)C(O)(Cc1cccnc1)P(=O)(O)O [Risedronate, risedronate]
T. cruzi amastigotes [2]
  ED50 T. cruzi amastigotes: 55.0 ± 5.0[53] μM
T. gondii tachyzoites [4]
  ED50 T. gondii tachyzoites: 2.4 μM and 2.4 ± 0.7[24] μM

## CCCCCCCCCC(F)(P(=O)(O)O)P(=O)(O)O [Compound 11]
[3]
  activity against TcFPPS: devoid
T. cruzi amastigotes [2]
  cellular activity against T. cruzi: devoid of cellular activity

## CCCCCCCNCC(O)(P(=O)(O)O)P(=O)(O)O [Compound 29, 1-[(n-Heptylamino)ethyl]-1-hydroxy-1,1-bisphosphonic Acid]
T. cruzi amastigotes [1]
  ED50 T. cruzi amastigotes: > 20 µM
T. gondii tachyzoites [5]
  T. gondii tachyzoites, % at 10 μM (printed in the ED50 column): 0.00% at 10 μM

## CCCCCCCCCCNCC(O)(P(=O)(O)O)P(=O)(O)O [Compound 31, 1-[(n-Decylamino)ethyl]-1-hydroxy-1,1-bisphosphonic Acid]
[6]
  IC50: > 10 µM
T. gondii tachyzoites [5]
  T. gondii tachyzoites, % at 10 μM (printed in the ED50 column): 14.9% at 10 μM

## CCCCCCCCNCC(O)(P(=O)(O)O)P(=O)(O)O [Compound 30, 1-[(n-Octylamino)ethyl]-1-hydroxy-1,1-bisphosphonic Acid]
T. gondii tachyzoites [5]
  ED50 T. gondii tachyzoites: 2.0 µM and 2.00 ± 0.95 µM

## CCCCCCCCCCCCNCC(P(=O)(O)O)P(=O)(O)O [Compound 14]
T. cruzi amastigotes [2]
  ED50 intracellular T. cruzi proliferation: 0.67 µM

## CCCCCCNCC(O)(P(=O)(O)O)P(=O)(O)O [Compound 28, 1-[(n-Hexylamino)ethyl]-1-hydroxy-1,1-bisphosphonic Acid]
[6]
  IC50: > 10 µM
T. cruzi amastigotes [1]
  ED50 T. cruzi amastigotes: > 20 µM
T. gondii tachyzoites [5]
  ED50 T. gondii tachyzoites: 4.7 µM and 4.68 ± 1.19 µM

## CCCCCCNCC(P(=O)(O)O)P(=O)(O)O [Compound 12]
T. cruzi amastigotes [2]
  ED50 against T. cruzi (amastigotes): 0.84 µM

## CCCCCNCC(O)(P(=O)(O)O)P(=O)(O)O [Compound 27, 1-[(n-Pentylamino)ethyl]-1-hydroxy-1,1-bisphosphonic Acid]
[6]
  IC50: > 10 µM
T. cruzi amastigotes [1]
  ED50 T. cruzi amastigotes: > 20 µM
T. gondii tachyzoites [5]
  ED50 T. gondii tachyzoites: > 10 µM
